Measured values reported in ChEMBL document CHEMBL5465560, “Selectivity Literature for EUbOPEN Chemogenomic Library” (2024).

Experiments:
[1] = molecular target: MAP kinase-interacting serine/threonine-protein kinase 2 (Homo sapiens, UniProt Q9HBH9); test: Selectivity interaction (Kinase panel (literature)) EUB0001199aCl MKNK2; details: at 1 µM
[2] = molecular target: T1, Cytoplasmic tyrosine-protein kinase BMX (Homo sapiens) (UniProt P51813); test: Selectivity interaction (Kinase panel (DSF assay)) EUB0001558a BMX
T1 sequence (whole entry): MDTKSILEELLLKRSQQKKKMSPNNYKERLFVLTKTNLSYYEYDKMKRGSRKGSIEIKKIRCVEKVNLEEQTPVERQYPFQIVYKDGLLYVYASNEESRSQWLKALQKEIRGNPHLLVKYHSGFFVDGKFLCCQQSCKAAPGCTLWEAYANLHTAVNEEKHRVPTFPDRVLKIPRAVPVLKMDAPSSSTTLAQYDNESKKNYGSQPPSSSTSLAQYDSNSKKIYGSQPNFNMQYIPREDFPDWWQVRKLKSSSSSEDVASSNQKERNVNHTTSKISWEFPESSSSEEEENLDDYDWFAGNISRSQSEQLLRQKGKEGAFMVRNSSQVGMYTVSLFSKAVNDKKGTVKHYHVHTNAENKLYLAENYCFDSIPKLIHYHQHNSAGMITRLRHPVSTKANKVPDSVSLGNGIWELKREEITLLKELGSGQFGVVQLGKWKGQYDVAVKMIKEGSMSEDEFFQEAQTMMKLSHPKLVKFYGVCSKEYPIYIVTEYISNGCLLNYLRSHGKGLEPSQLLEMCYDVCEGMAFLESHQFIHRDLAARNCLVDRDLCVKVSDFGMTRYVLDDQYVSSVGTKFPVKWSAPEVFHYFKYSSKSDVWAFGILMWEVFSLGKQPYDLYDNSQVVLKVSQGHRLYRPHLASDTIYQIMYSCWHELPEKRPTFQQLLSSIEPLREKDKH

[3] = molecular target: T2, Phosphatidylinositol 5-phosphate 4-kinase type-2 gamma (Homo sapiens) (UniProt Q8TBX8); test: Selectivity interaction (ActivX KiNativ screen (kinase selectivity in THP-1 cell lysates)) EUB0000639a PIP4K2C; format: subcellular; details: lysate, at 0.01 µM
T2 sequence (whole entry): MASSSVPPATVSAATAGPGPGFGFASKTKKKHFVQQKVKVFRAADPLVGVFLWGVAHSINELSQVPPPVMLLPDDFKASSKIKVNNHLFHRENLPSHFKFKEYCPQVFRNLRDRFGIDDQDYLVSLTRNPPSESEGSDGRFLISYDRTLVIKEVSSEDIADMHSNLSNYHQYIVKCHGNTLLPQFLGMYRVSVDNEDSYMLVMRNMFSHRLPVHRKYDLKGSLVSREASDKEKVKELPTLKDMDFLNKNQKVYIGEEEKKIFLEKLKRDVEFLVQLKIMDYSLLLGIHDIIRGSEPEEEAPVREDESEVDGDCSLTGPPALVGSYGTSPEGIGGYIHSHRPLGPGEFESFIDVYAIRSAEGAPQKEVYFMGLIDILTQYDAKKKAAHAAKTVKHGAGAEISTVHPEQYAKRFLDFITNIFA

[4] = molecular target: T3, Serine/threonine-protein kinase 17B (Homo sapiens) (UniProt O94768); test: Selectivity interaction (KinomeScan (DiscoverX)) EUB0000595a STK17B; details: at 10 µM
T3 sequence (whole entry): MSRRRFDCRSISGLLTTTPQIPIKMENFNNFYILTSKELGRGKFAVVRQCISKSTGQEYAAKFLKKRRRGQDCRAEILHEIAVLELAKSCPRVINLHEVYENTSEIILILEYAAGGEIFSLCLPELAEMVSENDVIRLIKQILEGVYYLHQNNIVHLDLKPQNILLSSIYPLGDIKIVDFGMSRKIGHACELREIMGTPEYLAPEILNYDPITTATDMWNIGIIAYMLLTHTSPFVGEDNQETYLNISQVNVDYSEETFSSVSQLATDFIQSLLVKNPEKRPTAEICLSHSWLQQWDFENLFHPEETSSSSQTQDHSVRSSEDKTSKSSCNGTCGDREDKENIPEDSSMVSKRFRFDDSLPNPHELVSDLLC

[5] = molecular target: Atypical kinase COQ8A, mitochondrial (Homo sapiens, UniProt Q8NI60); test: Selectivity interaction (KinomeScan (DiscoverX)) EUB0000595a ADCK3; details: at 10 µM
[6] = test system: Phosphatidylinositol 4,5-bisphosphate 3-kinase catalytic subunit alpha isoform (Homo sapiens), P42336 [I800L]; details: at 10 µM
[7] = molecular target: T4, Phosphorylase b kinase gamma catalytic chain, liver/testis isoform (Homo sapiens) (UniProt P15735); test: Selectivity interaction (KinomeScan (DiscoverX)) EUB0000618a PHKG2; details: at 10 µM
T4 sequence (whole entry): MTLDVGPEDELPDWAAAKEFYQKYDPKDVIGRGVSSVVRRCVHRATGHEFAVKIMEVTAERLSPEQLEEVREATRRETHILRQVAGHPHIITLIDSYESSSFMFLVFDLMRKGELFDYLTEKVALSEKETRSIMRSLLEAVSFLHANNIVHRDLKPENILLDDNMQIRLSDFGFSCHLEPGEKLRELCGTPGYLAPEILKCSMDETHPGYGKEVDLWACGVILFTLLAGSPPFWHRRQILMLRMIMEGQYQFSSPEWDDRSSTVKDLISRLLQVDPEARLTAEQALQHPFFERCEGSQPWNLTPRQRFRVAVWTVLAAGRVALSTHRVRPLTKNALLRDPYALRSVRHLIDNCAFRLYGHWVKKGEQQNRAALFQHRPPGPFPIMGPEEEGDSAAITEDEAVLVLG

[8] = molecular target: Mitogen-activated protein kinase 4 (Homo sapiens) (UniProt P31152); test: Selectivity interaction (KinomeScan (DiscoverX)) EUB0001619a MAPK4; details: at 1 µM
[9] = molecular target: Serine/threonine-protein kinase SIK2 (Homo sapiens) (UniProt Q9H0K1); test: Selectivity interaction (KinomeScan (DiscoverX)) EUB0000655a SIK2; details: at 10 µM
[10] = molecular target: T5, Mitogen-activated protein kinase 12 (Homo sapiens) (UniProt P53778); test: Selectivity interaction (SelectScreen profiling (Invitrogen)) EUB0000607a MAPK12; details: at 2 µM
T5 sequence (whole entry): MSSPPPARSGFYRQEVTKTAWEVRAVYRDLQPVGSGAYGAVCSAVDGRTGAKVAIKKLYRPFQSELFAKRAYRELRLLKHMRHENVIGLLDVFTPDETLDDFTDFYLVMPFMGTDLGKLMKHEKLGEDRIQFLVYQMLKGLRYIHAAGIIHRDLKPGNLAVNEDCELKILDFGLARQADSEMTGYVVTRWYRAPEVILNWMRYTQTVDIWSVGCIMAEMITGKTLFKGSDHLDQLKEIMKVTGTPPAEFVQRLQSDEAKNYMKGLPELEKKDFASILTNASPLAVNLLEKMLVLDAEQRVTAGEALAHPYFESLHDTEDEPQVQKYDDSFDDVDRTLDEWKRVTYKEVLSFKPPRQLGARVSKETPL

[11] = test system: Phosphatidylinositol 4,5-bisphosphate 3-kinase catalytic subunit alpha isoform (Homo sapiens), P42336 [C420R]; details: at 10 µM
[12] = molecular target: Maternal embryonic leucine zipper kinase (Homo sapiens) (UniProt Q14680); test: Selectivity interaction (ProQinase) EUB0000171b MELK
Chain of Maternal embryonic leucine zipper kinase (Homo sapiens) (Q14680 whole entry, looked up): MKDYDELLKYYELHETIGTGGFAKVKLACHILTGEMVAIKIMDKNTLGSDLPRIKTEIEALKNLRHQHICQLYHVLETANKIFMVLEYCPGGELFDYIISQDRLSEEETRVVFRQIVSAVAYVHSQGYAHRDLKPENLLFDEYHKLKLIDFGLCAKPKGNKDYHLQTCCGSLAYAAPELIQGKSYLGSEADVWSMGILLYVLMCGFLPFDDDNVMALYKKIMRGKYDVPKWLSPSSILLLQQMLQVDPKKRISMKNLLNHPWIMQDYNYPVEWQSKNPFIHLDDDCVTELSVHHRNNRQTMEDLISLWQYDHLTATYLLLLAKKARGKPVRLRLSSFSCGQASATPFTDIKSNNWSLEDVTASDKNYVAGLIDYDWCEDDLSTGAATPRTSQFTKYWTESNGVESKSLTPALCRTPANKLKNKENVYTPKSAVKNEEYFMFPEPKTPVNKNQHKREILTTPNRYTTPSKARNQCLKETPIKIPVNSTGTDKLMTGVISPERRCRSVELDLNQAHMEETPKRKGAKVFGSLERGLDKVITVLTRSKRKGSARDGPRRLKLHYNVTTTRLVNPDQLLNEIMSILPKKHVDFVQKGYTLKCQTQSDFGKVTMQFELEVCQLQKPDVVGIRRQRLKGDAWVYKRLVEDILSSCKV

Chain of Phosphatidylinositol 4,5-bisphosphate 3-kinase catalytic subunit alpha isoform (Homo sapiens), P42336 [I800L] (P42336 whole entry I800L, canonical isoform): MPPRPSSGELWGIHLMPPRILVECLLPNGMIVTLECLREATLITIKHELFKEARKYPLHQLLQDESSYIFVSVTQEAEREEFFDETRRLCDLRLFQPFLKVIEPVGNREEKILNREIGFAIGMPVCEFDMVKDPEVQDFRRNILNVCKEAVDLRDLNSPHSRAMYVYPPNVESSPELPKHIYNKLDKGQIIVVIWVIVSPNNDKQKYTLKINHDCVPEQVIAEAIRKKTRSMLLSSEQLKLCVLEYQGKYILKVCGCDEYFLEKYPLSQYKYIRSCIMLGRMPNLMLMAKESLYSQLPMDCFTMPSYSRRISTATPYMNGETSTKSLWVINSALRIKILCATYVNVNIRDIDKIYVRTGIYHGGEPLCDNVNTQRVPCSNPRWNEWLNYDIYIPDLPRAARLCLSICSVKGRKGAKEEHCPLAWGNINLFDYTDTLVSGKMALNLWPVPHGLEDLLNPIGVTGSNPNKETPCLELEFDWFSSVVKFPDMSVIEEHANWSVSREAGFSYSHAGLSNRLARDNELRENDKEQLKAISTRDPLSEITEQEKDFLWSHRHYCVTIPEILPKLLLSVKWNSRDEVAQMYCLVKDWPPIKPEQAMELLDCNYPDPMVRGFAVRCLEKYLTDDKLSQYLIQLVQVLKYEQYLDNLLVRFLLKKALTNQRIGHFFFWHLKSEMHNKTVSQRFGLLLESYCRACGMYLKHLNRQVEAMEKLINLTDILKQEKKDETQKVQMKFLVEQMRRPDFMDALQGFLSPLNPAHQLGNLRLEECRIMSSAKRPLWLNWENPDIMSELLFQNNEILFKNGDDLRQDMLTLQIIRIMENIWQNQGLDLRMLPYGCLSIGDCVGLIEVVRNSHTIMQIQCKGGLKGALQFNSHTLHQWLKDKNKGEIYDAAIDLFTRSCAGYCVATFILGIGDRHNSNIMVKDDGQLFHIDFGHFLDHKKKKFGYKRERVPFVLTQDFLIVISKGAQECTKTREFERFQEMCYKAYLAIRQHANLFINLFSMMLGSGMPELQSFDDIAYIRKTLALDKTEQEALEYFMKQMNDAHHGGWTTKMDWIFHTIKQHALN
Chain of Atypical kinase COQ8A, mitochondrial (Q8NI60 163-647 limits assumed): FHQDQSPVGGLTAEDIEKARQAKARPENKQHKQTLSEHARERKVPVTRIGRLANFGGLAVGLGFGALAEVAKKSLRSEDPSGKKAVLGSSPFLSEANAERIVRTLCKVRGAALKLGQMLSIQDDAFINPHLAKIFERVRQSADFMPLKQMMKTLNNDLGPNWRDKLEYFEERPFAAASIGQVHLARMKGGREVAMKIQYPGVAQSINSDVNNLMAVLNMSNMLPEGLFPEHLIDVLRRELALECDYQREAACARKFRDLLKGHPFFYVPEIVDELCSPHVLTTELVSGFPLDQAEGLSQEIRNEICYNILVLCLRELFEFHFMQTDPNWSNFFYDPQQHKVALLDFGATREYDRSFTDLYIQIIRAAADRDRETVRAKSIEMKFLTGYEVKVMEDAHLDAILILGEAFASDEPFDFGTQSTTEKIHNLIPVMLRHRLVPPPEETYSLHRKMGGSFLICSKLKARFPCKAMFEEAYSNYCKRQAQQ
Chain of Phosphatidylinositol 4,5-bisphosphate 3-kinase catalytic subunit alpha isoform (Homo sapiens), P42336 [C420R] (P42336 whole entry C420R, canonical isoform): as the sequence (P42336 whole entry I800L, canonical isoform) above, with C420R, L800I counted along it
Chain of Serine/threonine-protein kinase SIK2 (Homo sapiens) (Q9H0K1 whole entry, looked up): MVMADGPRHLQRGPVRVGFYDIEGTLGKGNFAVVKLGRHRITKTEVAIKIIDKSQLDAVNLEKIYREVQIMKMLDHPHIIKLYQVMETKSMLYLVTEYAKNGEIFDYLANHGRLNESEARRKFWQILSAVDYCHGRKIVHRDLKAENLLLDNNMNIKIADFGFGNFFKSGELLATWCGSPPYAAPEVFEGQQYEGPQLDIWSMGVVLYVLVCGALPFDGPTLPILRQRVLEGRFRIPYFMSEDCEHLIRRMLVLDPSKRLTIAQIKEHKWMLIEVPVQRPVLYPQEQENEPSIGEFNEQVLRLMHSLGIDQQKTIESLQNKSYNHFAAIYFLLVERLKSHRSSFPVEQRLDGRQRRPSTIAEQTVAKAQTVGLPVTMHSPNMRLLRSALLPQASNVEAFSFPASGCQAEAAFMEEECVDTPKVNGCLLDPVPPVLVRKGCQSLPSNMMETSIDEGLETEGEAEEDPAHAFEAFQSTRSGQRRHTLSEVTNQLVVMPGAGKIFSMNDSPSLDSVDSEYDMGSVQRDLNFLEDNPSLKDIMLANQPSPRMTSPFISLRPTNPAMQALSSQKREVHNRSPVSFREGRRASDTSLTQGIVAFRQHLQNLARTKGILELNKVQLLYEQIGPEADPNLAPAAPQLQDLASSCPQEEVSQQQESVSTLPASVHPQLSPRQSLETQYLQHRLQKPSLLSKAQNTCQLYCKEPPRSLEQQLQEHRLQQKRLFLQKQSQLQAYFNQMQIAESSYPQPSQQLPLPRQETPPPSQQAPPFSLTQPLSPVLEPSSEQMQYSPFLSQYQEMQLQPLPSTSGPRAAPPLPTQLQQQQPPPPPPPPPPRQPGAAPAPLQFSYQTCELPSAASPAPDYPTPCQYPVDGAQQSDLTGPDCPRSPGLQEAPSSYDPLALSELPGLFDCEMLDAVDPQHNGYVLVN
Chain of MAP kinase-interacting serine/threonine-protein kinase 2 (Q9HBH9 whole entry, looked up): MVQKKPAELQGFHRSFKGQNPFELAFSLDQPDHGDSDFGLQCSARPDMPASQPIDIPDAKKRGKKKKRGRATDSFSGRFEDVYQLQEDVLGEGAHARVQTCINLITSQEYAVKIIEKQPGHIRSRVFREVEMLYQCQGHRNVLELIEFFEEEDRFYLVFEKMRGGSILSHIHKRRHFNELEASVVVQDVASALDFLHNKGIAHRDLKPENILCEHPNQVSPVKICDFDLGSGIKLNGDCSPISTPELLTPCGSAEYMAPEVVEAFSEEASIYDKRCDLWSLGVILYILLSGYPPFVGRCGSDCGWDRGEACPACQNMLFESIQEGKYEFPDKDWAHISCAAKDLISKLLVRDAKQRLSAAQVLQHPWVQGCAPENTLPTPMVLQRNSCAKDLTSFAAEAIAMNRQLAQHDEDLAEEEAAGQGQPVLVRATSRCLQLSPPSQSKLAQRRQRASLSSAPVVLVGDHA
Chain of Mitogen-activated protein kinase 4 (Homo sapiens) (P31152 whole entry): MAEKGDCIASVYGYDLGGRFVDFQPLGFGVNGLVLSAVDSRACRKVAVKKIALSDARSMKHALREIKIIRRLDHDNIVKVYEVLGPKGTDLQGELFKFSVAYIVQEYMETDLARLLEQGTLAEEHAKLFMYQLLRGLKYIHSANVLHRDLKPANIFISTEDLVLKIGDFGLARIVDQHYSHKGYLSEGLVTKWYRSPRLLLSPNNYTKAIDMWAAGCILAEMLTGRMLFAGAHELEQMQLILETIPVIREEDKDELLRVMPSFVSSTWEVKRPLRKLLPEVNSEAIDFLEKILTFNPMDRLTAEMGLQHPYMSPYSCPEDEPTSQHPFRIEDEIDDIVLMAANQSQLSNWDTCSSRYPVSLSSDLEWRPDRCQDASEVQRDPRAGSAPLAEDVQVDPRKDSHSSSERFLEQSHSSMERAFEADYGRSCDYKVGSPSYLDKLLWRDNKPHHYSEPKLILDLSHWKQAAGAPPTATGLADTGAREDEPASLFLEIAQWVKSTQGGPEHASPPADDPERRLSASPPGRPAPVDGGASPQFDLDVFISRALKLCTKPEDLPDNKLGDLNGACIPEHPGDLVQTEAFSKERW

`CN1Cc2nccc(-c3cn(C)nc3-c3ccc(F)cc3)c2C1=O` was tested, and the % of inhibition [1] was 9%.

With `CC(C)(O)[C@H](F)CN1Cc2cc(NC(=O)c3cnn4cccnc34)c(N3CCOCC3)cc2C1=O` the dTM [2] was 0.2 K.

Molecule `CC[C@@H]1[C@H](F)C(=O)N[C@@H]1COc1nccc2cc(C(N)=O)c(OC)cc12` [ZIMLOVISERTIB] has a % of inhibition [3] of 7.3%.

For `COCC(=O)NC/C=C/c1ccc2ncnc(Nc3ccc(Oc4ccc(C)nc4)c(C)c3)c2c1` [CP-724714], the % of control [4] was 100% and the % of control [5] was 100%.

Work on `CCC(=O)N1CCN(c2ccc(-n3c(=O)ccc4cnc5ccc(-c6cnc7ccccc7c6)cc5c43)cc2C(F)(F)F)CC1` yielded a % of control [6] of 0%.

Work on `O[C@H]1CC[C@H](Nc2ncc3nc(Nc4c(F)cc(F)cc4F)n([C@H]4CCOC4)c3n2)CC1` yielded a % of control [7] of 99%.

`N#Cc1cccc(-c2c[nH]c3ncnc(N4CCOCC4)c23)c1` showed a % of control [8] of 95%.

In the case of `CN(C)CCOc1ccc(-c2nc(-c3ccncc3)c(-c3ccc4c(c3)CC/C4=N\O)[nH]2)cc1`, the % of control [9] is reported as 91%.

`CNC(=O)Nc1ccc(-c2nc(N3CC4CCC(C3)O4)c3cnn(C4CCC5(CC4)OCCO5)c3n2)cc1` was tested, and the % of inhibition [10] was -2% and the % of control [11] was 11%.

`C=CC(=O)Nc1cccc(C(=O)Nc2ccc(Nc3cc(-c4[nH]c(SC)nc4C)ccn3)cc2)c1` gave a % of control ([12]; at 1 µM) of 95% and a % of control ([12]; at 5 µM) of 70%.
